The results in this text go back to patent US9206159B2, “Piperazine-piperidine compounds as hepatitis C virus inhibitors” (Theravance Biopharma R&D IP, LLC, priority 2012, dated 2015).

Structures are written as SMILES.

The first experiment deals with HCV genotype 1a replicon cell line. Put plainly: HCV Genotype 1a Replicon Assay. Format: cell-based, hepatitis C virus. As to conditions: Hepatitis C virus, Huh7.5 cell background, NS3-specific protease activity in lysates, 48 or 72 hours, read-out: Genotype 1a (pEC50 class) (converted). The procedure:
Assay 2: HCV Genotype 1a Replicon Assay
The HCV genotype 1a replicon cell line was obtained from Apath LLC (APC89; Huh7.5 cell background). This subgenomic replicon contains the N-terminus of the HCV core protein fused to the neomycin-resistance selectable marker. The EMCV IRES lies downstream and drives expression of the non-structural proteins NS3-NS5B. Compound potencies were determined using the NS3-specific protease activity in lysates as a measurement of compound inhibition of replicon levels.
Cells were grown at 37° C. in a 5% CO2 humidified incubator in DMEM (Invitrogen) with 10% FBS (HyClone), 1×NEAA (Invitrogen), 1× Pen-Strep (Invitrogen), and 850 μg/mL G418 (Invitrogen). On day 1 of the assay, cells were plated at 15,000 cells/well in black 96-well tissue culture plates (Costar) in 200 μL media lacking G418. Four hours later, once the cells had adhered, the media was removed and replaced with media (no G418) containing dose-responses of test compounds. Compounds were initially diluted in DMSO and then diluted another 200× in media to bring the final DMSO concentration down to 0.5%. The cells were incubated with test compounds for 48 or 72 hours. At the end of the incubation period, media and compound were removed from the plates.
To determine the NS3-specific protease activity in lysates, the cells were lysed at room temperature in 50 μL/well of 50 mM Hepes pH 7.5, 150 mM NaCl, 15% Glycerol, 0.15% Triton X-100, 10 mM DTT for 20 minutes with shaking. 50 μL of an NS3/4a protease-specific FRET substrate (Anaspec RET SI Cat#22991) was then added to the wells at a final concentration of 15 μM. The plates were incubated at 37° C. for 20 minutes, which corresponds to a timepoint at which the protease activity is still in the linear phase. Protease activity was determined by measuring fluorescence (Excitation: 340 nm; Emission: 509 nm).
To analyze the data, the fluorescence was plotted vs. the compound concentration, and EC50 values were determined from a 4-parameter robust fit model using GraphPad Prism software.
(In general: Replicon systems follow genome replication, usually without infectious particles.)
As to `COC(=O)N[C@H](C(=O)N1CCC[C@H]1c1nc(-c2ccc(-c3ccc(NC(=O)N4CCN(C5CCN(C(=O)C6CC6)CC5)[C@@H](C)C4)cc3OC(F)(F)F)cc2)c[nH]1)C(C)C` [Example 1, ((S)-1-{(S)-2-[4-(4′-{[(S)-4-(1-Cyclopropanecarbonyl-piperidin-4-yl)-3-methyl-piperazine-1-carbonyl]-amino}-2′-trifluoromethoxy-biphenyl-4-yl)-1H-imidazol-2-yl]-pyrrolidine-1-carbonyl}-2-methyl-propyl)-carbamic acid methyl ester], the EC50 is 0.1 to 1 nM.

The same experiment, now with this note: Huh7.5 cell background, NS3-specific protease activity in lysates, 48 or 72 hours.
As to `COC(=O)N[C@H](C(=O)N1CCC[C@H]1c1nc(-c2ccc(-c3ccc(NC(=O)N4CCN(C5CCN(C(=O)OCc6ccccc6)CC5)CC4)cc3)cc2)c[nH]1)C(C)C` [Example 1-2], the “Genotype 1a (pEC50 class)” value was “B (B represents pEC50 between 8 and 9 (EC50 between 1 and 10 nM))”.

As for `COC(=O)N[C@H](C(=O)N1CCC[C@H]1c1nc(-c2ccc(-c3ccc(NC(=O)N4CCN(C5CCN(C(=O)[C@H]6CC6(C)C)CC5)CC4)cc3)cc2)c[nH]1)C(C)C` [Example 1-3], the “Genotype 1a (pEC50 class)” value was “C (C represents pEC50 between and 9 and about 10, (EC50 between 1 nM and 0.1 nM))”.

Take `COC(=O)N[C@H](C(=O)N1CCC[C@H]1c1nc(-c2ccc(-c3ccc(NC(=O)N4CCN(C5CCN(C(=O)c6c[nH]cn6)CC5)CC4)cc3)cc2)c[nH]1)C(C)C` [Example 1-5]: the “Genotype 1a (pEC50 class)” value was “B (B represents pEC50 between 8 and 9 (EC50 between 1 and 10 nM))”.

As to `COC(=O)N[C@H](C(=O)N1CCC(N2CCN(C(=O)Nc3ccc(-c4ccc(-c5c[nH]c([C@@H]6CCCN6C(=O)[C@@H](NC(=O)OC)C(C)C)n5)cc4)cc3)CC2)CC1)C(C)C` [Example 1-6], the “Genotype 1a (pEC50 class)” value is “A (A represents a pEC50 value between 6 and 8 (EC50 between 1 μM and 10 nM))”.

Consider `CNC(=O)N1CCC(N2CCN(C(=O)Nc3ccc(-c4ccc(-c5c[nH]c([C@@H]6CCCN6C(=O)[C@@H](NC(=O)OC)C(C)C)n5)cc4)cc3)CC2)CC1` [Example 1-7], for which the “Genotype 1a (pEC50 class)” value is “B (B represents pEC50 between 8 and 9 (EC50 between 1 and 10 nM))”.

On to `COC(=O)N[C@H](C(=O)N1CCC[C@H]1c1nc(-c2ccc(-c3ccc(NC(=O)N4CCN(C5CCN(C(=O)OC)CC5)CC4)cc3)cc2)c[nH]1)C(C)C` [Example 1-9], for which the “Genotype 1a (pEC50 class)” value is “B (B represents pEC50 between 8 and 9 (EC50 between 1 and 10 nM))”.

With `COC(=O)N[C@H](C(=O)N1CCC[C@H]1c1nc(-c2ccc(-c3ccc(NC(=O)N4CCN(C5CCN(C(=O)C67CC8CC(CC(O)(C8)C6)C7)CC5)CC4)cc3OC(F)(F)F)cc2)c[nH]1)C(C)C` [Example 1-10], the “Genotype 1a (pEC50 class)” value is “B (B represents pEC50 between 8 and 9 (EC50 between 1 and 10 nM))”.

Regarding `COC(=O)N[C@H](C(=O)N1CCC[C@H]1c1nc(-c2ccc(-c3ccc(NC(=O)N4CCN(C5CCN(C(=O)C6CC7CCC6C7)CC5)CC4)cc3OC(F)(F)F)cc2)c[nH]1)C(C)C` (stereo partly shown) [Example 1-11], the “Genotype 1a (pEC50 class)” value is “C (C represents pEC50 between and 9 and about 10, (EC50 between 1 nM and 0.1 nM))”.

On to `COC(=O)N[C@H](C(=O)N1CCC[C@H]1c1nc(-c2ccc(-c3ccc(NC(=O)N4CCN(C5CCN(C(=O)C(C)NC(N)=O)CC5)CC4)cc3OC(F)(F)F)cc2)c[nH]1)C(C)C` (stereo partly shown) [Example 1-15], for which the “Genotype 1a (pEC50 class)” value was “B (B represents pEC50 between 8 and 9 (EC50 between 1 and 10 nM))”.

For the compound `COC(=O)N[C@H](C(=O)N1CCC[C@H]1c1nc(-c2ccc(-c3ccc(NC(=O)N4CCN(C5CCN(C(=O)C6CC6)CC5)C[C@H]4C)cc3OC(F)(F)F)cc2)c[nH]1)C(C)C` [Example 1-18], the “Genotype 1a (pEC50 class)” value is “C (C represents pEC50 between and 9 and about 10, (EC50 between 1 nM and 0.1 nM))”.

Take `COC(=O)N[C@H](C(=O)N1CCC[C@H]1c1nc(-c2ccc(-c3ccc(NC(=O)N4CCN(C5CCN(C(=O)OC(C)(C)C)CC5)C[C@H]4C)cc3OC(F)(F)F)cc2)c[nH]1)C(C)C` [Example 1-19]: the “Genotype 1a (pEC50 class)” value was “C (C represents pEC50 between and 9 and about 10, (EC50 between 1 nM and 0.1 nM))”.

With `COC(=O)N[C@H](C(=O)N1CCC[C@H]1c1nc(-c2ccc(-c3ccc(NC(=O)N4CCN(C5CCN(C(=O)c6ncccn6)CC5)CC4)cc3OC(F)(F)F)cc2)c[nH]1)C(C)C` [Example 1-21], the “Genotype 1a (pEC50 class)” value was “B (B represents pEC50 between 8 and 9 (EC50 between 1 and 10 nM))”.

For `COC(=O)N[C@H](C(=O)N1CCC[C@H]1c1nc(-c2ccc(-c3ccc(NC(=O)N4CCN(C5CCN(C(=O)c6c[nH]cn6)CC5)CC4)cc3OC(F)(F)F)cc2)c[nH]1)C(C)C` [Example 1-23], the “Genotype 1a (pEC50 class)” value is “C (C represents pEC50 between and 9 and about 10, (EC50 between 1 nM and 0.1 nM))”.

With `CNC(=O)N1CCC(N2CCN(C(=O)Nc3ccc(-c4ccc(-c5c[nH]c([C@@H]6CCCN6C(=O)[C@@H](NC(=O)OC)C(C)C)n5)cc4)c(OC(F)(F)F)c3)CC2)CC1` [Example 1-24], the “Genotype 1a (pEC50 class)” value is “C (C represents pEC50 between and 9 and about 10, (EC50 between 1 nM and 0.1 nM))”.

As to `COC(=O)N[C@H](C(=O)N1CCC[C@H]1c1nc(-c2ccc(-c3cc(F)c(NC(=O)N4CCN(C5CCN(C(=O)[C@H]6CC6(C)C)CC5)CC4)cc3OC(F)(F)F)cc2)c[nH]1)C(C)C` [Example 1-26], the “Genotype 1a (pEC50 class)” value is “C (C represents pEC50 between and 9 and about 10, (EC50 between 1 nM and 0.1 nM))”.

Turning to `COC(=O)N[C@H](C(=O)N1CCC[C@H]1c1nc(-c2ccc(-c3cc(F)c(NC(=O)N4CCN(C5CCN(C(=O)C6CC6)CC5)CC4)cc3OC(F)(F)F)cc2)c[nH]1)C(C)C` [Example 1-28], the “Genotype 1a (pEC50 class)” value is “C (C represents pEC50 between and 9 and about 10, (EC50 between 1 nM and 0.1 nM))”.

Turning to `COC(=O)N[C@H](C(=O)N1CCC(N2CCN(C(=O)Nc3ccc(-c4ccc(-c5c[nH]c([C@@H]6CCCN6C(=O)[C@@H](NC(=O)OC)C(C)C)n5)cc4)c(OC(F)(F)F)c3)CC2)CC1)C(C)C` [Example 1-29], the “Genotype 1a (pEC50 class)” value was “A (A represents a pEC50 value between 6 and 8 (EC50 between 1 μM and 10 nM))”.

Consider `CCN(CC)[C@@H](C(=O)N1CCC(N2CCN(C(=O)Nc3ccc(-c4ccc(-c5c[nH]c([C@@H]6CCCN6C(=O)[C@@H](NC(=O)OC)C(C)C)n5)cc4)c(OC(F)(F)F)c3)CC2)CC1)C(C)C` [Example 1-30], for which the “Genotype 1a (pEC50 class)” value is “A (A represents a pEC50 value between 6 and 8 (EC50 between 1 μM and 10 nM))”.

For `CCN(CC)[C@@H](C(=O)N1CCC(N2CCN(C(=O)Nc3ccc(-c4ccc(-c5c[nH]c([C@@H]6CCCN6C(=O)[C@@H](NC(=O)OC)C(C)C)n5)cc4)c(OC(F)(F)F)c3)CC2)CC1)c1ccccc1` [Example 1-32], the “Genotype 1a (pEC50 class)” value is “A (A represents a pEC50 value between 6 and 8 (EC50 between 1 μM and 10 nM))”.

As to `COC(=O)N[C@H](C(=O)N1CCC[C@H]1c1nc(-c2ccc(-c3cc(Cl)c(NC(=O)N4CCN(C5CCN(C(=O)C6CC6)CC5)CC4)cc3OC(F)(F)F)cc2)c[nH]1)C(C)C` [Example 1-33], the “Genotype 1a (pEC50 class)” value is “C (C represents pEC50 between and 9 and about 10, (EC50 between 1 nM and 0.1 nM))”.

Consider `COC(=O)N[C@H](C(=O)N1CCC[C@H]1c1nc(-c2ccc(-c3cc(Cl)c(NC(=O)N4CCN(C5CCN(C(=O)[C@H]6CC6(C)C)CC5)CC4)cc3OC(F)(F)F)cc2)c[nH]1)C(C)C` [Example 1-34], for which the “Genotype 1a (pEC50 class)” value is “C (C represents pEC50 between and 9 and about 10, (EC50 between 1 nM and 0.1 nM))”.
